“Also recorded” adds a separate entry of the source.
Columns and labels:
[1] = target: T1, homomeric GluA1 AMPA receptor (Rattus norvegicus, UniProt P19490); assay: Whole-cell patch clamp of recombinant GluA1 receptors in HEK293-T/17 cells; assay type: cell-based; settings: 30 μM; 10 mM glutamate
T1 construct: expressed in transfected cells; host or cells: HEK293-T/17 (CRL-11268)
Experimental: (§1) Cell Culture and Transfection. Human embryonic kidney cells expressing T-antigen, clone 17 (HEK293-T/17) (CRL-11268) were cultured at 37° C. with 5% CO2 in DMEM, including 100 μg/mL penicillin, 100 μg/mL streptomycin, and 10% heat-inactivated fetal bovine serum. Cells were split twice per week. For transfection, HEK293-T/17 cells were plated at 3×10^4 cells/cm^2 for pharmacology experiments and 5×10^3 cells/cm^2 for physiology experiments in fresh medium 24 h prior to transfection. Cells were transfected with AMPA or KA receptor plasmid cDNAs using Mirus Trans-IT transfection reagent (Minus Bio Corporation, Madison, Wis.) at a ratio of 1 μg cDNA: 3 μL Trans-1T reagent and maintained in transfection medium overnight followed by a media change the next day. Transfected cells were maintained in this medium until the experiment was conducted (48-72 h total post transfection).
(§2) Electrophysiology. For analysis of recombinant receptors, HEK293-T/17 cells were co-transfected with 0.2 μg of iGluR cDNA and 0.05 μg of eGFP. For heterologous GluA1/GluA2 receptors, the GluA1:GluA2 cDNA ratio was 1:6. Two to three days post-transfection, eGFP-expressing cells were lifted from the cover slip and voltage clamped in whole cell mode. […]

[2] = target: T2, heteromeric GluA1/GluA2 AMPA receptor (Rattus norvegicus, UniProt P19490+P19491); assay: Whole-cell patch clamp of recombinant GluA1/GluA2 receptors in HEK293-T/17 cells; assay type: cell-based
T2 construct: expressed in transfected cells; host or cells: HEK293-T/17 (CRL-11268)
Experimental: as §1
Electrophysiology. For analysis of recombinant receptors, HEK293-T/17 cells were co-transfected with 0.2 μg of iGluR cDNA and 0.05 μg of eGFP. For heterologous GluA1/GluA2 receptors, the GluA1:GluA2 cDNA ratio was 1:6. Two to three days post-transfection, eGFP-expressing cells were lifted from the cover slip and voltage clamped in whole cell mode. The internal solution contained (in mM) 30 CsF, 110 CsCl, 10 HEPES, 4 NaCl, 5 EGTA and 0.5 CaCl2 (pH 7.3), while the extracellular solution contained (in mM) 140 NaCl, 10 glucose, 10 Cs-HEPES, 3 KCl, 2 CaCl2 and 1 MgCl2 (pH 7.3). Borosilicate patch electrodes were pulled and fire polished to 2-3 MO resistance. Lifted cells were maintained in a laminar stream of extracellular solution from a triple-barreled flow pipe, which was rapidly translated using a piezoceramic bimorph for fast application of glutamate or kainate alone or in combination with various antagonists (the 10-90% rise time of glutamate-evoked currents was ˜1 ms). IKM compounds were applied for three minutes with analysis performed on the final one minute of drug application.
Statistical analysis. At least three separate experiments were performed for each assay. […]

mice = settings: Ikoma et al., 2008; Oikawa et al., 2009 and unpublished observations; cited from earlier work
[3] = tested on: primary hippocampal neurons; assay: Spontaneous action potential firing, current clamp, cultured hippocampal neurons; assay type: cell-based; settings: 20 μM
Experimental: Experiments involving primary hippocampal neurons were carried out as described previously (Vivithanaporn et al., 2007). Dissociated neurons were cultured from E18 prenatal hippocampi and were used for analysis from between 17 and 28 days in vitro. The extracellular solution was the same as used for recombinant receptor analysis, while the internal solution for voltage clamp recordings contained (in mM) 95 CsF, 25 CsCl, 10 Cs-HEPES, 10 EGTA, 2 NaCl, 2 Mg-ATP, 10 QX-314, 5 TEA. and 5 4-AP (pH 7.3) and the internal solution for current clamp recordings contained (in mM) 120 KMeSO4, 5 KCl, 5 NaCl, 1 MgCl2, 11 Na-HEPES, 10 phosphocreatine, 4 Na-ATP, and 0.3 Na-GTP (pH 7.0). Borosilicate patch electrodes were pulled and fire polished to 3-5 MΩ resistance. Both whole cell current clamp and voltage clamp recordings were performed using an Axopatch 200B amplifier (MDS, Sunnyvale, Calif.) and filtered at 20 kHz. Gigaohm seals were established in voltage clamp mode and, after membrane rupture, the recordings were carried out either in voltage clamp (clamped at Vm=−70 mV) with a […] series resistance, which was compensated to ˜60%, or in current clamp mode ([…]) with the bridge balance was corrected and pipette resistance neutralized. In vitro status epilepticus (SE) was induced as described previously (Deshpande et al., 2007; Pal et al., 1999) and action potentials were recorded in current clamp mode. Briefly for in vitro SE, magnesium-containing external solution was exchanged for external solution without magnesium and supplemented with 2 μM glycine. This solution exchange produced a period of rapid depolarization and increased AP firing, followed by a period of channel inactivation and reduced AP firing. After channel inactivation, neurons characteristically would hyperpolarize to hold at a membrane voltage (Vm) which was depolarized relative to control Vm, with an increase in AP firing frequency. […] External solutions were bath-applied at a flow rate of 1.5-2 ml/minute. After recording a basal control period, IKM compounds were applied for five minutes (10 minutes for in vitro SE experiments) and changes in excitatory post-synaptic current (EPSC) charge transfer or action potential (AP) frequency were analyzed during the last two minutes of IKM application.
Effects of IKM-159 on neuronal excitability. […] To determine if altered neuronal excitability could contribute to this behavioral phenotype, we examined the effect of IKM-86 and IKM-159 on action potential firing in cultured hippocampal neurons. Spontaneous action potentials were recorded in current-clamp mode before, during and after application of 20 μM IKM-86 and IKM-159. […]

[4] = target: T3, homomeric GluA3 AMPA receptor (Rattus norvegicus, UniProt P19492); assay: Whole-cell patch clamp of recombinant GluA3 receptors in HEK293-T/17 cells; assay type: cell-based; settings: 30 μM; 10 mM glutamate
T3 construct: expressed in transfected cells; host or cells: HEK293-T/17 (CRL-11268)
Experimental: as §1, §2

T2 sequence (P19490 19-907 isoform P19490-2 limits assumed): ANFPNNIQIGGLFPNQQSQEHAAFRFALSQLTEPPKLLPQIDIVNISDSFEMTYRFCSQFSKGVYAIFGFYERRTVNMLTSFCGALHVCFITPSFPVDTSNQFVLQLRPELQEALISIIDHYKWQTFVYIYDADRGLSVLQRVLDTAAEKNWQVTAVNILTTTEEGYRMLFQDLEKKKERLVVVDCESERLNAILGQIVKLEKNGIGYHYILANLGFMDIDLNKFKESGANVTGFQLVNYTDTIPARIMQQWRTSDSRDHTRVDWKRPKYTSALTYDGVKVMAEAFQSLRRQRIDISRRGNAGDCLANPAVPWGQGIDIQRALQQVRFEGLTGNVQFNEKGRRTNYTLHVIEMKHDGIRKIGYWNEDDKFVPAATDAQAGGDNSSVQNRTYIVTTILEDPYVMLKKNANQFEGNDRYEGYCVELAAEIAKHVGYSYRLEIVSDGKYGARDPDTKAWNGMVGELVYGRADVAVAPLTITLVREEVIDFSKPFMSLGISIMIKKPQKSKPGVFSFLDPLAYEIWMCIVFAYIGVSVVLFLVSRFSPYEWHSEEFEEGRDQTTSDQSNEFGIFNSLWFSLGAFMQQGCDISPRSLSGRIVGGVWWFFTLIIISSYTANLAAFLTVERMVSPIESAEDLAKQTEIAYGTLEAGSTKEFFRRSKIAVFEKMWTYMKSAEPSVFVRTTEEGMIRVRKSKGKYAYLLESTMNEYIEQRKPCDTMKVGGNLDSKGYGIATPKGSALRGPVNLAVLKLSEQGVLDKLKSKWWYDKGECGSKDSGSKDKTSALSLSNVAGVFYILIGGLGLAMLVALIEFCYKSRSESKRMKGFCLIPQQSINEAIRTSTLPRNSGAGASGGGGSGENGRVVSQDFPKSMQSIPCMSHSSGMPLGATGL
T2 sequence (P19491 22-883 isoform P19491-2 limits assumed): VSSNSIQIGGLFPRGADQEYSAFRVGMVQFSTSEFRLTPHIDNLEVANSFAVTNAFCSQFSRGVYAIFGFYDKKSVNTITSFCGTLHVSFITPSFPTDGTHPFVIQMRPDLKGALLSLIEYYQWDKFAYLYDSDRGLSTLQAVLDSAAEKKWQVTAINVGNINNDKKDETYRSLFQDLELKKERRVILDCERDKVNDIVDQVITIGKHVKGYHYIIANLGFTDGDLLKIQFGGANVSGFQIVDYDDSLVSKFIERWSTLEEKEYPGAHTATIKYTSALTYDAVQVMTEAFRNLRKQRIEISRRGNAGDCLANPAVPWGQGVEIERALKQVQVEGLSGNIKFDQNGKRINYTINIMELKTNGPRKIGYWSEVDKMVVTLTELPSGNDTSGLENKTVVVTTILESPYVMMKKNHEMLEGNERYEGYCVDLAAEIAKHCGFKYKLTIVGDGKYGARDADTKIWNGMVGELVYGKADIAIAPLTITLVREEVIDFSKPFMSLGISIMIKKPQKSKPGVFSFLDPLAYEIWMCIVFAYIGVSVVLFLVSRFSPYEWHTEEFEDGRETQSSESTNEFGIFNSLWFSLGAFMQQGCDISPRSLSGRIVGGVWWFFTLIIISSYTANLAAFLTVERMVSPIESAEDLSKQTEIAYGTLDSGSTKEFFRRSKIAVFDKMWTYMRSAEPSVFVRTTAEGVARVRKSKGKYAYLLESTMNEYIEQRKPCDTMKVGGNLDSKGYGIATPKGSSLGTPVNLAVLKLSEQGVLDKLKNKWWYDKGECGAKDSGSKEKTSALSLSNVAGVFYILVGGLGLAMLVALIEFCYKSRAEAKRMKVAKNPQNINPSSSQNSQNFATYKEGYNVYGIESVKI
T3 sequence (P19492 23-888 isoform P19492-2 limits assumed): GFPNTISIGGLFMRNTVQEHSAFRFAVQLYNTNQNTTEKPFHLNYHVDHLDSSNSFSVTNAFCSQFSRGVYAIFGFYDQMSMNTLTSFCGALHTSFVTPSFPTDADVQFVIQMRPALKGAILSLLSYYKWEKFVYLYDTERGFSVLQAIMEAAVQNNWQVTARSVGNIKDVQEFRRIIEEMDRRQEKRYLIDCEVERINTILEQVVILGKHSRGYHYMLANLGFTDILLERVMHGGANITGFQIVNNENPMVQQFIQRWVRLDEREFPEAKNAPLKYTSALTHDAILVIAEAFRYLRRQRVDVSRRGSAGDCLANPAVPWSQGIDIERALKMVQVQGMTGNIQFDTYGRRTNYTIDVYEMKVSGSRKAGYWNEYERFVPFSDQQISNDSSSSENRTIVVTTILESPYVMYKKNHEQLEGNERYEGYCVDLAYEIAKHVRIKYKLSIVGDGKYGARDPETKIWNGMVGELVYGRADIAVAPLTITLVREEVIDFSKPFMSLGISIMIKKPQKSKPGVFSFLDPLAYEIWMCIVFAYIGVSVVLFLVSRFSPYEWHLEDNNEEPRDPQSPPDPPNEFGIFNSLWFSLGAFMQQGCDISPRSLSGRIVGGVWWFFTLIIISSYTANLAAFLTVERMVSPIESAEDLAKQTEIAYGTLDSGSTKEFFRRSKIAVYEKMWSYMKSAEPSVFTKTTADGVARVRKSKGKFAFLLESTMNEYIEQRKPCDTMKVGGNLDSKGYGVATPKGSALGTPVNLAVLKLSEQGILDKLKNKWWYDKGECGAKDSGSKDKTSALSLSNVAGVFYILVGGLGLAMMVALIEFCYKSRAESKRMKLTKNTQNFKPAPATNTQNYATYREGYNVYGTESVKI
T1 sequence (P19490 19-907 isoform P19490-2 limits assumed): as the sequence (P19490 19-907 isoform P19490-2 limits assumed) above

O=C(O)C[C@@]12O[C@H]3C=CCN[C@H]3C1CN[C@H]2C(=O)O (stereo partly drawn) [IKM-159]
GluA1 peak amplitude as percent of basal (glutamate alone) peak [1]: 92±3% | IC50 [2]: 26 ± 2 µM | GluA1/GluA2 peak amplitude as percent of basal peak amplitude ([2]; 30 μM, 10 mM glutamate): 56±5% | reduction in GluA1/GluA2 peak current amplitude ([2]; 30 μM, 10 mM glutamate): 44±5% | behavioral phenotype in mice (mice): hypoactive phenotypes similar to cataleptic states; also recorded: marked hypoactivity and immobility | persistence of reduction in action potential firing frequency after removal of compound [3]: prolonged | action potential firing frequency in presence of compound ([3]; basal (spontaneous) firing): 0.5±0.04 Hz | GluA3 peak amplitude as percent of basal peak amplitude [4]: 83±2% | reduction in GluA3 peak current amplitude [4]: 17±2%

Reference: patent US8895579B2, “Heterotricyclic AMPA receptor antagonists for treatment of epilepsy, pain, and other neurological disorders and diseases” (Northwestern University, priority 2010, dated 2014)
